Test results published in patent US20240252472A1, “COMBINATIONS FOR TREATING CANCER” (Purdue Pharma L.P., priority 2023, published 2024).

Key:
CD38 mRNA = CD38 mRNA by RT-qPCR in MM cell lines; assay type: cell-based, human; conditions: MM1.S, JJN3, RPMI-8226; 1 and 2.5 μM, 36 hours
Procedure: Real time quantitative PCR (RT-qPCR) Total RNA was isolated using the RNeasy Mini Kit (Qiagen, Hilden, Germany). Following reverse transcription, PCR was performed using TaqMan Gene Expression Assays (Applied Biosystems, Foster City, CA, USA): CD38 (Hs01120071_m1), MICA (Hs00741286_m1), MICB (Hs00792952_m1) and GAPDH (Hs99999905_m1). The results were expressed as fold change relative to expression of the target gene in control cells, using endogenous expression of GAPDH for normalization.

[1] = system: CD38 expressed on MM cells; test: Daratumumab binding to myeloma cells pre-treated with EDO-S101, flow cytometry; assay type: cell-based, human; conditions: JJN3, RPMI-8226, MOLP-8; EDO-S101 1 or 2.5 μM 48 h, then daratumumab 10 μg/ml
Procedure: Evaluation of daratumumab binding to myeloma cells To evaluate daratumumab binding to myeloma cells, MM cell lines were first pre-treated with tinostamustine (1 or 2.5 μM) or DMSO for 48 hours. Then cells were washed to remove tinostamustine or DMSO from the culture medium, and daratumumab (10 μg/ml) was added and incubated for 30 minutes. After that time, cells were washed with PBS twice and incubated during 30 additional minutes with anti-human-IgG1-AlexaFluor488 (Invitrogen, Carlsbad, CA, USA). Cells were acquired in a FACSCalibur cytometer and normalized MFI was calculated as described above.
Flow cytometry was used to analyse the binding of daratumumab to MM cells pre-treated with EDO-S101. The anti-human-IgG1-Alexa Fluor 488 (Invitrogen, Carlsbad, CA, USA) antibody recognizes and binds daratumumab's Fc region and, therefore, it can be detected using flow cytometry.
MM cells (JJN3, MM1.S, RPMI-8226, MOLP-8) were treated with EDO-S101 (1 μM or 2.5 μM) in accordance with the general methods outlined above. Following treatment, the cells were washed with PBS, and incubated at 37° C. for 30 minutes with 10 μg/ml daratumumab. Cells were then washed with PBS, anti-human-IgG1-Alexa Fluor 488 was added, and the cells were incubated at 37° C. for a further 30 minutes. […]

MM1S-luc derived tumors = test: Disseminated human myeloma model, CB17-SCID mice; assay type: in vivo; conditions: EDO-S101 15 mg/kg i.v. weekly, daratumumab 8 mg/kg i.p. weekly, 4 weeks; vehicle 33 days
Procedure: MM1S-luc cells (3×10^6) were injected intravenously (i.v.) into CB17-SCID mice which were determined to have normal NK cells, monocytes and granulocytes (The Jackson Laboratory, Bar Harbor, ME, USA). Tumor development was monitored by non-invasive bioluminescence imaging (BLI) with a Xenogen IVIS 50 system (Caliper Life Sciences, Hopkinton, MA, USA). Mice were randomized into four groups (n=5/group): one receiving vehicle (i.v., weekly), another group receiving EDO-S101 (15 mg/kg i.v., weekly on Tuesdays), another group receiving daratumumab (8 mg/kg i.p., weekly on Wednesdays) and the last group receiving the double combination of EDO-S101+daratumumab. Both drugs were administered over a period of 4 weeks.
CB17-SCID mice bearing MM1S-luc derived tumors were treated with EDO-S101, daratumumab, a combination thereof, or vehicle, in accordance with the methods outlined above. MM1S-Luc cells (3×10^6) were intravenously injected into CB17-SCID mice. After 2 weeks, mice were randomized into four groups: one receiving vehicle (i.v., weekly), another group receiving EDO-S101 (15 mg/kg i.v., weekly on Tuesdays), another group receiving daratumumab (8 mg/kg i.p., weekly on Wednesdays) and the last group received the double combination of EDO-S101+daratumumab. Survival of mice analyzed with a Kaplan-Meier curve. Both drugs were administered over a period of 4 weeks.

[2] = system: subcutaneous plasmacytoma derived from MM.1S cells; test: First subcutaneous plasmacytoma model, NSG mice with human NK cells; assay type: in vivo; conditions: EDO-S101 30 mg/kg i.v. weekly, daratumumab 8 mg/kg i.p. weekly, 4 weeks; vehicle 30 days
Procedure: For the first subcutaneous human plasmacytoma model, NSG mice (Charles River Laboratories, Wilmington, MA, USA) were subcutaneously inoculated into the right flank with 3×10^6 MM1S in 100 μL RPMI 1640 medium and 100 μL of Matrigel (BD Biosciences). When tumors developed, mice were injected with human NK cells isolated from buffy coats from healthy donors and randomized (4 mice/group) to receive: EDO-S101 (30 mg/kg, iv weekly), daratumumab (8 mg/kg, ip weekly), a combination thereof, or vehicle (PBS vehicle solution with 15% HPBCD, 1.5% acetic acid, and 1.25% NaHCO3). Both, NK cells and the treatments were administered over four consecutive weeks. Caliper measurements of the tumor diameters were performed three times a week, and the tumor volume was estimated as the volume of a 3D ellipse using the following formula: V=4/3π×(a/2)×(b/2)^2, where “a” and “b” correspond to the longest and shortest diameter, respectively. Animals were killed when their tumors reached 2 cm. Differences in tumor volumes between control and treated groups were evaluated using one-way analysis of variance and Dunn's post-hoc tests. […]

Cn1c(CCCCCCC(=O)NO)nc2cc(N(CCCl)CCCl)ccc21 [EDO-S101, 7-(5-(bis(2-chloroethyl)amino)-1-methyl-1H-benzo[d]imidazol-2-yl)-N-hydroxyheptanamide]
CD38 expression at the transcriptional level (qPCR) (CD38 mRNA): increased | binding of daratumumab to MM cells (normalized MFI) [1]: increases | median survival (MM1S-luc derived tumors): 45 days | median survival [2]: 48 days
